Reference: patent US10513519B2, “Solid forms of (1S,4S)-4-(2-(((3S,4R)-3-fluorotetrahydro-2H-pyran-4-yl)amino)-8-((2,4,6-trichlorophenyl)amino)-9H-purin-9-yl)-1-methylcyclohexane-1-carboxamide and methods of their use” (Signal Pharmaceuticals, LLC, priority 2016, dated 2019)

System: cancer cell lines
Assay: Multiplexed cytotoxicity assay: cell proliferation (relative cell count IC50, GI50)
Format: cell-based
Description: (§1) Cells are grown in RPMI1640, 10% FBS, 2 mM L-alanyl-L-Glutamine, 1 mM Na pyruvate or a special medium in a humidified atmosphere of 5% CO2 at 37° C. Cells are seeded into 384-well plates and incubated in a humidified atmosphere of 5% CO2 at 37° C. Compounds are added 24 h post cell seeding. At the same time, a time zero untreated cell plate is generated. After a 72 hour incubation period, cells are fixed and stained with fluorescently labeled antibodies and nuclear dye to allow visualization of nuclei, apoptotic cells and mitotic cells. Apoptotic cells are detected using an anti-active caspase-3 antibody. Mitotic cells are detected using an anti phospho-histone-3 antibody. Compounds are serially diluted 3.16-fold and assayed over 10 concentrations in a final assay concentration of 0.1% DMSO from the highest test concentration of 10 μM. Automated fluorescence microscopy was carried out using a Molecular Devices ImageXpress Micro XL high-content imager, and images are collected with a 4× objective.
(§2) Sixteen-bit TIFF images are acquired and analyzed with MetaXpress 5.1.0.41 software. Cell proliferation is measured by the signal intensity of the incorporated nuclear dye. The cell proliferation assay output is referred to as the relative cell count. To determine the cell proliferation end point, the cell proliferation data output is transformed to percentage of control (POC) using the following formula: POC=relative cell count(compound wells)/relative cell count(vehicle wells)×100
(§3) GI50 is the concentration needed to reduce the observed growth by half. This is the concentration that inhibits the growth to the level midway between growth in untreated cells and the number of cells seeded in the well (Time zero value). The IC50 values are calculated using nonlinear regression to fit data to a sigmoidal 4 point, 4 parameter One-Site dose response model, where: y(fit)=A+[(B−A)/(1+((C/x)^D))].
as §1, with “In another experiment, cells were grown” for “Cells are grown”, “Cells were” for “Cells are”, “Compounds were” for “Compounds are”, “plate was” for “plate is”, “cells were” for “cells are”, “images were” for “images are”
as §2, with “images were” for “images are”, “proliferation was” for “proliferation is”, “output was” for “output is”
as §3, with “GI50 refers to” for “GI50 is”, “This corresponds to” for “This is”, “values were” for “values are”

[1] = 72 h, G292CLONEA141B1, Soft Tissue, Osteosarcoma
[2] = 72 h, HOS, Soft Tissue, Osteosarcoma
[3] = 72 h, HS729, Soft Tissue, Sarcoma
[4] = 72 h, HS821T, Soft Tissue, Sarcoma
[5] = 72 h, HS888SK, Soft Tissue, Osteosarcoma
[6] = 72 h, IM9, Hematopoietic and lymphoid, Myeloma
[7] = 72 h, TE125T, Soft Tissue, Sarcoma
[8] = 72 h, U266B1, Hematopoietic and lymphoid, Myeloma
[9] = 72 h, VAESBJ, Soft Tissue, Sarcoma
[10] = BC1 (Hematopoietic and lymphoid, Lymphoma)
[11] = BCP-1, BCP1 (Hematopoietic and lymphoid, Lymphoma)
[12] = BM-1604, 72 h, BM1604, Prostate, 72 h
[13] = CEM/C1, CEMC1 (Hematopoietic and lymphoid, Leukemia)
[14] = CML-T1, CMLT1 (Hematopoietic and lymphoid, Leukemia)
[15] = D341 Med, D341MED (CNS, Medulloblastoma)
[16] = DB (Hematopoietic and lymphoid, Lymphoma)
[17] = EB2 (Hematopoietic and lymphoid, Lymphoma)
[18] = EB3 (Hematopoietic and lymphoid, Lymphoma)
[19] = EM2 (Hematopoietic and lymphoid, Leukemia)
[20] = H9 (Hematopoietic and lymphoid, Lymphoma)
[21] = HS611T (Hematopoietic and lymphoid, Lymphoma)
[22] = HT (Hematopoietic and lymphoid, Lymphoma)
[23] = HUH-6-clone5, HUH6CLONE5 (Liver)
[24] = Homo sapiens, 22Rv1, 72 h, 22RV1, Prostate, 72 h
[25] = Homo sapiens, 639-V, 639V (Bladder)
[26] = Homo sapiens, 647-V, 647V (Bladder)
[27] = Homo sapiens, 769-P, 769P (Kidney)
[28] = Homo sapiens, 786-0, 786O (Kidney)
[29] = Homo sapiens, A101D, A101D (Skin, Melanoma)
[30] = Homo sapiens, A 172, A172 (CNS, Glioma)
[31] = Homo sapiens, A204, 72 h, A204, Soft Tissue, Sarcoma, 72 h
[32] = Homo sapiens, A253, A253 (Head and Neck)
[33] = Homo sapiens, A498, A498 (Kidney)
[34] = Homo sapiens, A549, 72 h, A549, Lung, NSCLC, 72 h
[35] = Homo sapiens, A673, 72 h, A673, Soft Tissue, Sarcoma, 72 h
[36] = Homo sapiens, A704, A704 (Kidney)
[37] = Homo sapiens, A2058, A2058 (Skin, Melanoma)
[38] = Homo sapiens, A-375, A375 (Skin, Melanoma)
[39] = Homo sapiens, A-427, 72 h, A427, Lung, NSCLC, 72 h
[40] = Homo sapiens, A-431, A431 (Skin, Carcinoma)
[41] = Homo sapiens, ACHN, ACHN (Kidney)
[42] = Homo sapiens, AN3-CA, 72 h, AN3CA, Female GU, Uterus
[43] = Homo sapiens, ARH-77, 72 h, ARH77, Hematopoietic and lymphoid, Myeloma, 72 h
[44] = Homo sapiens, ASPC1, 72 h, ASPC1, Pancreas, 72 h
[45] = Homo sapiens, AU565, AU565 (Breast)
[46] = Homo sapiens, BE(2)-C, 72 h, BE2C, CNS, Neuroblastoma
[47] = Homo sapiens, BFTC-905, BFTC905 (Bladder)
[48] = Homo sapiens, BHT-101, 72 h, BHT101, Endocrine, Thyroid, 72 h
[49] = Homo sapiens, BPH-1, 72 h, BPH1, Prostate, 72 h
[50] = Homo sapiens, BT-20, BT20 (Breast)

Structure (SMILES): C[C@]1(C(N)=O)CC[C@@H](n2c(Nc3c(Cl)cc(Cl)cc3Cl)nc3cnc(N[C@@H]4CCOC[C@H]4F)nc32)CC1 [Compound 1, cis-4-[2-{[(3S,4R)-3-fluorooxan-4-yl]amino}-8-(2,4,6-trichloroanilino)-9H-purin-9-yl]-1-methylcyclohexane-1-carboxamide]
- GI50 (5637 (Bladder)): 6.85 µM
- IC50 (5637 (Bladder)): 9.77 µM
- GI50 (72 h, AGS, Stomach): 0.0086 µM
- IC50 (72 h, AGS, Stomach): 0.0098 µM
- GI50 [1]: 0.0272 µM
- IC50 [1]: 0.0493 µM
- GI50 [2]: 2.57 µM
- IC50 [2]: 3.69 µM
- GI50 (72 h, HS229T, Lung, NSCLC): 0.415 µM
- IC50 (72 h, HS229T, Lung, NSCLC): > 10 µM
- GI50 [3]: 0.54 µM
- IC50 [3]: > 10 µM
- GI50 [4]: 0.169 µM
- IC50 [4]: > 10 µM
- GI50 [5]: 0.111 µM
- IC50 [5]: > 10 µM
- GI50 [6]: 0.0911 µM
- IC50 [6]: 0.143 µM
- GI50 (72 h, JAR, Female GU, Placenta): 3.17 µM
- IC50 (72 h, JAR, Female GU, Placenta): 3.21 µM
- GI50 (72 h, KLE, Female GU, Uterus): > 10 µM
- IC50 (72 h, KLE, Female GU, Uterus): > 10 µM
- GI50 (72 h, PA1, Female GU, Ovary): 0.471 µM
- IC50 (72 h, PA1, Female GU, Ovary): 2.62 µM
- GI50 (72 h, PC3, Prostate): 7.82 µM
- IC50 (72 h, PC3, Prostate): 8.54 µM
- GI50 (72 h, RD, Soft Tissue, Sarcoma): 0.0367 µM
- IC50 (72 h, RD, Soft Tissue, Sarcoma): 0.0443 µM
- GI50 (72 h, SKPNDW, Stomach): 3.6 µM
- IC50 (72 h, SKPNDW, Stomach): > 10 µM
- GI50 [7]: 1.09 µM
- IC50 [7]: > 10 µM
- GI50 (72 h, TT, Endocrine, Thyroid): 0.0863 µM
- IC50 (72 h, TT, Endocrine, Thyroid): > 10 µM
- GI50 [8]: 0.0133 µM
- IC50 [8]: 0.109 µM
- GI50 [9]: 0.336 µM
- IC50 [9]: 0.58 µM
- GI50 (A7 (Skin, Melanoma)): 1.72 µM
- IC50 (A7 (Skin, Melanoma)): 7.27 µM
- GI50 (A388 (Head and Neck)): 0.422 µM
- IC50 (A388 (Head and Neck)): 1.12 µM
- GI50 [10]: > 10 µM
- IC50 [10]: > 10 µM
- GI50 [11]: 0.0205 µM
- IC50 [11]: 0.0797 µM
- GI50 [12]: 0.141 µM
- IC50 [12]: 0.401 µM
- GI50 (C4I (Female GU, Cervix)): > 10 µM
- IC50 (C4I (Female GU, Cervix)): > 10 µM
- GI50 (C32 (Skin, Melanoma)): 0.0289 µM
- IC50 (C32 (Skin, Melanoma)): 0.111 µM
- GI50 (C32TG, C32TG (Skin, Melanoma)): 0.0408 µM
- IC50 (C32TG, C32TG (Skin, Melanoma)): 0.109 µM
- GI50 [13]: > 10 µM
- IC50 [13]: > 10 µM
- GI50 [14]: 0.149 µM
- IC50 [14]: > 10 µM
- GI50 [15]: 10 µM
- IC50 [15]: 0.0219 µM
- GI50 [16]: 0.0131 µM
- IC50 [16]: > 10 µM
- GI50 (DKMG (CNS, Glioma)): 0.0207 µM
- IC50 (DKMG (CNS, Glioma)): 0.126 µM
- GI50 [17]: 0.389 µM
- IC50 [17]: 0.55 µM
- GI50 [18]: 1.63 µM
- IC50 [18]: 2.15 µM
- GI50 [19]: 0.0481 µM
- IC50 [19]: 0.0936 µM
- GI50 (H4 (CNS, Glioma)): 0.758 µM
- IC50 (H4 (CNS, Glioma)): 0.943 µM
- GI50 [20]: 0.0232 µM
- IC50 [20]: 0.039 µM
- GI50 (HLE (Liver)): 0.683 µM
- IC50 (HLE (Liver)): 1.04 µM
- GI50 (HLF (Liver)): 4.76 µM
- IC50 (HLF (Liver)): 6.47 µM
- GI50 [21]: 0.0106 µM
- IC50 [21]: 0.0123 µM
- GI50 (HS688AT (Skin, Melanoma)): 0.0822 µM
- IC50 (HS688AT (Skin, Melanoma)): > 10 µM
- GI50 (HS852T (Skin, Melanoma)): 0.0564 µM
- IC50 (HS852T (Skin, Melanoma)): 0.715 µM
- GI50 (HS895T (Skin, Melanoma)): > 10 µM
- IC50 (HS895T (Skin, Melanoma)): > 10 µM
- GI50 (HS934T (Skin, Melanoma)): 0.0052 µM
- IC50 (HS934T (Skin, Melanoma)): > 10 µM
- GI50 (HS936TC1 (Skin, Melanoma)): 0.0184 µM
- IC50 (HS936TC1 (Skin, Melanoma)): 0.0258 µM
- GI50 (HT3 (Female GU, Cervix)): 0.856 µM
- IC50 (HT3 (Female GU, Cervix)): 3.21 µM
- GI50 [22]: 8.3 µM
- IC50 [22]: > 10 µM
- GI50 [23]: 0.145 µM
- IC50 [23]: 0.354 µM
- GI50 [24]: 2.66 µM
- IC50 [24]: 5.58 µM
- GI50 [25]: 0.184 µM
- IC50 [25]: 0.206 µM
- GI50 [26]: 6.93 µM
- IC50 [26]: 7.82 µM
- GI50 [27]: 0.194 µM
- IC50 [27]: 0.255 µM
- GI50 [28]: 2.04 µM
- IC50 [28]: 6.92 µM
- GI50 [29]: 0.0424 µM
- IC50 [29]: 0.0815 µM
- GI50 [30]: 0.0649 µM
- IC50 [30]: 0.139 µM
- GI50 [31]: > 10 µM
- IC50 [31]: > 10 µM
- GI50 [32]: 0.171 µM
- IC50 [32]: > 10 µM
- GI50 [33]: 0.522 µM
- IC50 [33]: 0.808 µM
- GI50 [34]: 0.102 µM
- IC50 [34]: 0.128 µM
- GI50 [35]: 3.75 µM
- IC50 [35]: 3.87 µM
- GI50 [36]: > 10 µM
- IC50 [36]: > 10 µM
- GI50 [37]: 0.212 µM
- IC50 [37]: 0.288 µM
- GI50 [38]: 0.0065 µM
- IC50 [38]: 0.0072 µM
- GI50 [39]: 0.0475 µM
- IC50 [39]: 0.0763 µM
- GI50 [40]: 0.228 µM
- IC50 [40]: 0.311 µM
- GI50 [41]: 0.306 µM
- IC50 [41]: 0.55 µM
- GI50 [42]: 0.713 µM
- IC50 [42]: 7.03 µM
- GI50 [43]: > 10 µM
- IC50 [43]: > 10 µM
- GI50 [44]: 0.0308 µM
- IC50 [44]: > 10 µM
- GI50 [45]: 8.15 µM
- IC50 [45]: 8.77 µM
- GI50 [46]: 0.146 µM
- IC50 [46]: 0.21 µM
- GI50 [47]: 0.0515 µM
- IC50 [47]: 0.0546 µM
- GI50 [48]: 0.0376 µM
- IC50 [48]: 0.0412 µM
- GI50 [49]: 0.0578 µM
- IC50 [49]: 0.0675 µM
- GI50 [50]: 8.36 µM
- IC50 [50]: > 10 µM
